Article PMC4868737, “BAY 1024767 blocks androgen receptor mutants found in castration-resistant prostate cancer patients” (Oncotarget, 2016)

Assays:
[1] = biological target: AR V715M (Homo sapiens, UniProt P10275, V716M); assay: cell-based; conditions: IC50 (antagonistic activity)
[2] = system: VCaP (AR wild-type, overexpressed); assay: Cell proliferation assay (Alamar Blue); format: cell-based; conditions: Homo sapiens, 168 h
Experimental: (§1) All assays were performed in 96-well microtiter plates. […] LAPC-4 cells were plated at 4,000 cells/well, VCaP cells at 16,000 cells/well, LNCaP cells at 2,000 cells/well, 22Rv1 cells at 4,000 cells/well. After 1 day, the cells were treated with R1881 (0.1 nM final concentration, except for LAPC-4 where the final concentration was 1 nM) and compound (day 0). Cell number was determined by Alamar Blue staining (2 h). Fluorescence was measured in a Victor3 device (PerkinElmer, Waltham, MA, USA) with the excitation filter set at 530 nm and the emission filter set at 590 nm. C0 was defined as the signal measured at day 7 for cells treated only with R1881 and CI was defined as the signal measured at day 7 for cells grown without R1881 or compound.

[3] = system: LAPC-4 (AR wild-type); assay: Cell proliferation assay (Alamar Blue); format: cell-based; conditions: Homo sapiens, LAPC4, 168 h
Experimental: as §1

[4] = system: LNCaP (AR 877A); assay: Cell proliferation assay (Alamar Blue); format: cell-based; conditions: Homo sapiens, 168 h
Experimental: as §1

[5] = system: 22Rv1 (AR H874Y, splice variants); assay: Cell proliferation assay (Alamar Blue); format: cell-based; conditions: Homo sapiens, 22Rv1, 168 h
Experimental: as §1

[6] = system: PSA and FKBP5 expression in LNCaP cells (AR T877A mutant); assay: mRNA expression of androgen target genes (real-time PCR); format: cell-based, human; conditions: 1 nM R1881, 24 h
Experimental: (§2) VCaP or LNCaP cells were seeded into 6-well plates in RPMI 1640 medium without phenol red, supplemented with 10% charcoal-stripped fetal calf serum (cFCS) and 2 mM stable glutamine, and maintained for 2 days prior to treatment. […] After 24 h treatment, total RNA was extracted using the RNeasy Mini Kit (Qiagen, Hilden, Germany) and reverse-transcription was performed using the SuperScript™ III First-Strand Synthesis SuperMix for qRT-PCR (Invitrogen, Carlsbad, […]). Transcript levels of AR target genes were determined by real-time PCR using the following assays (Applied Biosystems, Foster City, CA, USA): PSA Hs02576345_m1 and FKBP5 Hs00188025_m1. Human PPIA (Cyclophilin A) 4326316E was used as an internal control.

[7] = system: PSA and FKBP5 expression in VCaP cells (AR wild-type); assay: as above; format: cell-based, human; conditions: 1 nM R1881, 24 h
Experimental: as §2

[8] = system: AR binding to PSA gene regulatory elements; assay: Chromatin immunoprecipitation (ChIP) in VCaP cells; conditions: 6 h, 1 nM R1881 with 5 μM compound
Experimental: VCaP cells were grown in 10 cm plates to 80% confluence. One plate of cells was used per immunoprecipitation. The cells were maintained in DMEM-cFCS for 3 days prior to treatment. […] After cell lysis (5 mM PIPES pH 8, 85 mM KCl, 0.5 % Nonidet P40) and nuclei isolation using RIPA buffer, chromatin was sheared to 100-2000 base pair-long fragments using a S220 ultrasonicator (Covaris, Woburn, MA, USA).
Immunoprecipitations were performed using the IPstar device (Diagenode, Liège, Belgium) with 20 μL of magnetic Protein A bead suspension. […] The buffers used were: bead wash (10 mM Tris-HCl pH 8, 1 mM EDTA, 0.02 % Tween-20), wash 1 (20 mM Tris-HCl pH 8, 2 mM EDTA, 150 mM NaCl, 1 % Triton X-100, 0.1 % SDS), wash 2 (20 mM Tris-HCl pH 8, 2 mM EDTA, 500 mM NaCl, 1 % Triton X-100, 0.1 % SDS), wash 3 (10 mM Tris-HCl pH 8, 1 mM EDTA, 250 mM LiCl, 1 % Nonidet P40, 1 % sodium deoxycholate) and elute (0.1 M NaHCO3, 1 % SDS).
The samples were treated with RNaseA and Proteinase K, and were purified using the Qiagen PCR purification kit before analysis by qPCR.

[9] = Caco-2 permeation assay; format: in vitro ADME; conditions: human
Experimental: Caco-2 cells were seeded on 24-well insert plates, 0.4 μm pore size, and grown for 15 days. The test compound was dissolved in DMSO and added either to the apical (A) or basolateral (B) compartment at a final concentration of 2 μM. Before and after 2 h incubation, samples were taken from both compartments and analyzed by LC/MS/MS. The apparent permeability (Papp) was determined for each direction and the efflux ratio was calculated as Papp B-A/Papp A-B.

[10] = In vivo pharmacokinetics in male NMRI mice; conditions: mouse, plasma
Experimental: BAY 1024767 was administered to 6-7 week-old male NMRI mice in the tail vein by a single dose of 0.5 mg/kg and intragastral by a single dose of 1 mg/kg formulated in PEG400/water (60/40). Three mice were sacrificed at different time points after dosing, and blood (for heparinized plasma) was sampled from the vena cava. Analysis of the samples was performed by LC/MS/MS and pharmacokinetic parameters were calculated by non-compartmental analysis.

[11] = system: Dunning R3327-G prostate cancer model; assay: Anti-tumor efficacy in the syngeneic Dunning rat R3327-G model; format: in vivo
Experimental: The Dunning R3327-G tumor [51] was maintained by serial in vivo passages. For the efficacy experiment, tumor tissue pieces of 8 mm^3 were inoculated subcutaneously (flank region) in 12-13 week-old male Copenhagen rats (COP/CrCrl strain, Charles River Laboratories). Treatment was started once the tumor reached 50 mm^2 and rats were randomly assigned to control (n = 9), castrated (n = 10) or treatment group (n = 10). In the treatment group 40 mg/kg of BAY 1024767 was given orally once a day (p.o., QD). The vehicle was NMP/PEG 1/9 (v/v). Rat body weight was measured at least twice a week. Tumor volume and weight were determined as above.

[12] = biological target: AR L701H (Homo sapiens, UniProt P10275, L701H/L702H); assay: cell-based; conditions: IC50 (antagonistic activity)

CC(C)(O)COc1ccc(CN2C(=S)N(c3ccc(C#N)c(C(F)(F)F)c3)C(=O)C2(C)C)cn1 [BAY 1024767]
IC50 ([1]; R1881 0.1 nM): 0.052 µM
IC50 ([1]; R1881 1 nM): 0.24 µM
GI50 [2]: 0.229 µM
GI50 [3]: 0.046 µM
GI50 [4]: 0.221 µM
GI50 [5]: 0.041 µM
PSA and FKBP5 expression [6]: dose-dependent down-regulations
PSA and FKBP5 expression [7]: dose-dependent down-regulations
AR binding to the PSA enhancer [8]: entirely prevented
efflux ratio at 2 h, 2 μM [9]: 0.61
Papp A→B at 2 h, 2 μM ([9]; 2 μM, 2 h): 183 nm/s
clearance ([10]; iv, 0.5 mg/kg i.v., read-out: CLB (blood clearance) (converted)): 0.06 L/h/kg
Vd ([10]; iv, 0.5 mg/kg i.v., read-out: VSS (volume of distribution)): 0.61 L/kg
bioavailability ([10]; oral, 1 mg/kg intragastral vs 0.5 mg/kg i.v., read-out: F (oral bioavailability)): 99%
body weight ([11]; 40 mg/kg p.o. daily): No significant body weight loss
tumor volumes ([11]; 40 mg/kg p.o. daily): significant anti-tumor efficacy
seminal vesicle weight ([11]; 40 mg/kg p.o. daily, comparable to castrated group, data not shown): strong inhibition
% T/C (tumor weight) ([11]; 40 mg/kg p.o. qdx49, day 113 post-tumor implantation): 11%
IC50 ([12]; R1881 1 nM): 0.718 µM
IC50 ([12]; R1881 10 nM): 1.38 µM
